Laboratory results taken from patent US12625427B2, “Naphthalimide sulfonate derivative, and photoacid generator and photoresist composition each comprising same” (SAMYANG CORPORATION, priority 2020, dated 2026).

How the values were obtained:
[1] = Measurement of thermal stability by thermogravimetric analyzer; assay type: physicochemical
Description: If a photoacid generator is thermally stable in a photoresist preparation process, a very good effect in terms of stability can be expected.

[2] = Measurement of solubility of photoacid generators in photoresist solvents; assay type: physicochemical; conditions: for Solubility (w/v %) PGMEA: solvent PGMEA; for Solubility (w/v %) Cyclohexane: solvent cyclohexane
Description: In preparing a photoresist composition, solubility of a photoacid generator is very important.

Compound	Temperature at which 5% weight loss occurred [1]	Solubility (w/v %) PGMEA [2]	Solubility (w/v %) Cyclohexane [2]
CCCC(OC)c1ccc2c3c(cccc13)C(=O)N(OS(=O)(=O)C(F)(F)F)C2=O (stereo not shown) [Compound 11]	230 °C	–	–
CCCCOCCOC(CCC)c1ccc2c3c(cccc13)C(=O)N(OS(=O)(=O)C(F)(F)F)C2=O (stereo not shown) [Compound 20]	235 °C	45.0 w/v %	54.1 w/v %
O=C1c2cccc3cccc(c23)C(=O)N1OS(=O)(=O)C(F)(F)F [Formula II, reference compound]	223 °C	1.7 w/v %	5.8 w/v %

The remaining lines, values ahead:

Temperature at which 5% weight loss occurred [1]	Solubility (w/v %) PGMEA [2]	Solubility (w/v %) Cyclohexane [2]	Compound
232 °C	50.0 w/v %	62.3 w/v %	CCCCOC(CCC)c1ccc2c3c(cccc13)C(=O)N(OS(=O)(=O)C(F)(F)F)C2=O (stereo not shown) [Compound 8]
234 °C	60.0 w/v %	64.1 w/v %	CCCC(OCCOC)c1ccc2c3c(cccc13)C(=O)N(OS(=O)(=O)C(F)(F)F)C2=O (stereo not shown) [Compound 19]
